This is an account of results in patent US8969565B2, “Imidazo[1,2-b]pyridazine-based compounds, compositions comprising them, and methods of their use” (Lexicon Pharmaceuticals, Inc., priority 2012, dated 2015).

Assay [1] addresses T1, AAK1 (Homo sapiens, UniProt Q2M2I8).
T1 construct: HA; expressed in transfected cells; host or cells: HEK293F
The assay can be described thus: P81 filter plate assay. In kind it is biochemical. The settings on record: full-length human AAK1, Mu2 substrate.

For assay [2], the target named is T1, AAK1. The assay can be described thus: HEK281 cell-based assay (phospho-mu2 Western blot in transfected HEK293F cells). The settings on record: 3 hours incubation, read-out: CBA IC50. The procedure, abridged: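 HEK293F cells co-transfected with full-length human AAK1/HA and Flag/AP2M1 were treated next day with 5 compound concentrations (3-fold dilutions) in DMEM+0.5% FBS for 3 hours at 37° C. Lysates were Western blotted for phospho-mu2, with total mu2 detected by anti-Flag.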
In general terms: A western blot detects proteins with antibodies after separation by electrophoresis.

T1 sequence (Q2M2I8 1-863 isoform Q2M2I8-2): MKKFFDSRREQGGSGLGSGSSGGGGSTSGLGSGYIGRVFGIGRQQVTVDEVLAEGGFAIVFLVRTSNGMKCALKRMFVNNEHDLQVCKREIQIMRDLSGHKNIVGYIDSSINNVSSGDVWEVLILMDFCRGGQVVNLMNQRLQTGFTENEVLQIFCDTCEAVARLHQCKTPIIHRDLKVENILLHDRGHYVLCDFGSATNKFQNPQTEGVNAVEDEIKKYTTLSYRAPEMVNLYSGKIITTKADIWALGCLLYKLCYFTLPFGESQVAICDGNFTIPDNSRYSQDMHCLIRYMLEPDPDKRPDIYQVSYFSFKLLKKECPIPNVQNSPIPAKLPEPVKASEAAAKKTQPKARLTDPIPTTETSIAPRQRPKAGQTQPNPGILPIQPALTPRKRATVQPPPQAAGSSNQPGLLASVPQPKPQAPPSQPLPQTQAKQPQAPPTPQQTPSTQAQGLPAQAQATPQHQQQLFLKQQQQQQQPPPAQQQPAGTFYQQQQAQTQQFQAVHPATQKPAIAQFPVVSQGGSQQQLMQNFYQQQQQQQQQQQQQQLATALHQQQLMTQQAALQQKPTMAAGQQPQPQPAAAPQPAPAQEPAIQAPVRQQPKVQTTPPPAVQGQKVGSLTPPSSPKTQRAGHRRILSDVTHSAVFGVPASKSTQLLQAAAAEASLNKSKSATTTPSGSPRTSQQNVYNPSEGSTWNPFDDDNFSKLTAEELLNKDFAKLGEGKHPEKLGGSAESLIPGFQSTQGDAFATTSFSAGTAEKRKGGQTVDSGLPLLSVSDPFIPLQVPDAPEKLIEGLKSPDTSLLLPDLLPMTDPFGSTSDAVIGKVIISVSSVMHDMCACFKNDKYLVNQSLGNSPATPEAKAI

As to `O=C(OC1CCC1)N1CCC[C@H]1CNc1ccc2ncc(-c3ccncc3)n2n1` [(S)-cyclobutyl 2-(((3-(pyridin-4-yl)imidazo[1,2-b]pyridazin-6-yl)amino)methyl)pyrrolidine-1-carboxylate], the IC50 against AAK1 [1] and at AAK1 [2] was at most 0.01 µM in each case.

For the compound `O=C(OC1CCC1)N1CCC[C@H]1CNc1ccc2ncc(Br)n2n1` [(S)-cyclobutyl 2-(((3-bromoimidazo[1,2-b]pyridazin-6-yl)amino)methyl)pyrrolidine-1-carboxylate], the results for the IC50 against AAK1 [1] and on AAK1 [2] were at most 0.01 µM and at most 0.1 µM, respectively.

Turning to `NCc1ccc(-c2cnc3ccc(NC[C@@H]4CCCN4C(=O)OC4CCCC4)nn23)cc1` [(S)-cyclopentyl 2-(((3-(4-(aminomethyl)phenyl)imidazo[1,2-b]pyridazin-6-yl)amino)methyl)pyrrolidine-1-carboxylate], the IC50 on AAK1 [1] and on AAK1 [2] was at most 0.01 µM each time.

On to `O=C(OC1CCCC1)N1CCC[C@H]1CNc1ccc2ncc(-c3ccncc3)n2n1` [(S)-cyclopentyl 2-(((3-(pyridin-4-yl)imidazo[1,2-b]pyridazin-6-yl)amino)methyl)pyrrolidine-1-carboxylate], for which the IC50 on AAK1 [1] and at AAK1 [2] was at most 0.01 µM throughout.

On to `O=C(OC1CCCC1)N1CCC[C@H]1CNc1ccc2ncc(Br)n2n1` [(S)-cyclopentyl 2-(((3-bromoimidazo[1,2-b]pyridazin-6-yl)amino)methyl)pyrrolidine-1-carboxylate], for which the IC50 on AAK1 [1] and at AAK1 [2] was at most 0.01 µM in each case.

Regarding `O=C(OC1CCCC1)N1CCC[C@H]1CNc1ccc2ncc(-c3ccccc3)n2n1` [(S)-cyclopentyl 2-(((3-phenylimidazo[1,2-b]pyridazin-6-yl)amino)methyl)pyrrolidine-1-carboxylate], the IC50 is at most 0.01 µM at AAK1 [1] and at most 0.1 µM at AAK1 [2].

On to `[2H]C([2H])([2H])Oc1ncccc1-c1cnc2ccc(N3CC[C@H](N(C)C(=O)OCC)C3)nn12` [(S)-ethyl (1-(3-(2-(trideuteromethoxy)pyridin-3-yl)imidazo[1,2-b]pyridazin-6-yl)pyrrolidin-3-yl)(methyl)carbamate], for which the IC50 was at most 0.01 µM against AAK1 [1] and at most 0.1 µM on AAK1 [2].

As for `CCOC(=O)N(C)[C@H]1CCN(c2ccc3ncc(-c4cc(C)cnc4OC)n3n2)C1` [(S)-ethyl (1-(3-(2-methoxy-5-methylpyridin-3-yl)imidazo[1,2-b]pyridazin-6-yl)pyrrolidin-3-yl)(methyl)carbamate], the IC50 against AAK1 [1] was at most 0.01 µM; at AAK1 [2], at most 0.1 µM.

Take `CCOC(=O)N(C)[C@H]1CCN(c2ccc3ncc(-c4cccnc4OC)n3n2)C1` [(S)-ethyl (1-(3-(2-methoxypyridin-3-yl)imidazo[1,2-b]pyridazin-6-yl)pyrrolidin-3-yl)(methyl)carbamate]: the results for the IC50 at AAK1 [1] and at AAK1 [2] were at most 0.01 µM and at most 0.1 µM, respectively.

For the compound `CCOC(=O)N(C)[C@H]1CCN(c2ccc3ncc(-c4cc(F)ccc4OC)n3n2)C1` [(S)-ethyl (1-(3-(5-fluoro-2-methoxyphenyl)imidazo[1,2-b]pyridazin-6-yl)pyrrolidin-3-yl)(methyl)carbamate], the IC50 on AAK1 [1] was at most 0.01 µM; at AAK1 [2] it was at most 0.1 µM.

On to `CCOC(=O)N(C)[C@H]1CCN(c2ccc3ncc(-c4cc(F)cnc4OC)n3n2)C1` [(S)-ethyl (1-(3-(5-fluoro-2-methoxypyridin-3-yl)imidazo[1,2-b]pyridazin-6-yl)pyrrolidin-3-yl)(methyl)carbamate], for which the IC50 against AAK1 [1] is at most 0.01 µM; on AAK1 [2], at most 0.1 µM.

As for `COc1ncccc1-c1cnc2ccc(N(C)C[C@@H]3CCCN3C(=O)OC(C)C)nn12` [(S)-isopropyl 2-(((3-(2-methoxypyridin-3-yl)imidazo[1,2-b]pyridazin-6-yl)(methyl)amino)methyl)pyrrolidine-1-carboxylate], the IC50 on AAK1 [1] and on AAK1 [2] was at most 0.01 µM in each case.

Consider `COc1ncccc1-c1cnc2ccc(NC[C@@H]3CCCN3C(=O)OC(C)C)nn12` [(S)-isopropyl 2-(((3-(2-methoxypyridin-3-yl)imidazo[1,2-b]pyridazin-6-yl)amino)methyl)pyrrolidine-1-carboxylate], for which the IC50 against AAK1 [1] and on AAK1 [2] was at most 0.01 µM each time.

Regarding `CC(C)OC(=O)N1CCC[C@H]1CNc1ccc2ncc(C#N)n2n1` [(S)-isopropyl 2-(((3-cyanoimidazo[1,2-b]pyridazin-6-yl)amino)methyl)pyrrolidine-1-carboxylate], the figures for the IC50 against AAK1 [1] and at AAK1 [2] were at most 0.01 µM and at most 1 µM, respectively.

With `COc1ccc(-c2cnc3ccc(N4CC[C@H](N(C)C(=O)OC(C)C)C4)nn23)c(OC)n1` [(S)-isopropyl (1-(3-(2,6-dimethoxypyridin-3-yl)imidazo[1,2-b]pyridazin-6-yl)pyrrolidin-3-yl)(methyl)carbamate], the IC50 is at most 0.01 µM at AAK1 [1] and at most 0.1 µM at AAK1 [2].

As to `[2H]C([2H])([2H])Oc1ncccc1-c1cnc2ccc(N3CC[C@H](N(C)C(=O)OC(C)C)C3)nn12` [(S)-isopropyl (1-(3-(2-(tri-deuteromethoxy)pyridin-3-yl)imidazo[1,2-b]pyridazin-6-yl)pyrrolidin-3-yl)(methyl)carbamate], the IC50 against AAK1 [1] and at AAK1 [2] was at most 0.01 µM throughout.

On to `COc1ncc(C)cc1-c1cnc2ccc(N3CC[C@H](N(C)C(=O)OC(C)C)C3)nn12` [(S)-isopropyl (1-(3-(2-methoxy-5-methylpyridin-3-yl)imidazo[1,2-b]pyridazin-6-yl)pyrrolidin-3-yl)(methyl)carbamate], for which the IC50 at AAK1 [1] was at most 0.01 µM; at AAK1 [2] it was at most 0.1 µM.

Consider `COc1cc(-c2cnc3ccc(N4CC[C@H](N(C)C(=O)OC(C)C)C4)nn23)c(OC)nn1` [(S)-isopropyl (1-(3-(3,6-dimethoxypyridazin-4-yl)imidazo[1,2-b]pyridazin-6-yl)pyrrolidin-3-yl)(methyl)carbamate], for which the IC50 on AAK1 [1] was at most 0.01 µM; on AAK1 [2], at most 0.1 µM.

In the case of `CC(C)OC(=O)N(C)[C@H]1CCN(c2ccc3ncc(-c4ccc(CN)cc4)n3n2)C1` [(S)-isopropyl (1-(3-(4-(aminomethyl)phenyl)imidazo[1,2-b]pyridazin-6-yl)pyrrolidin-3-yl)(methyl)carbamate], the IC50 at AAK1 [1] and on AAK1 [2] was at most 0.01 µM each time.

As to `COc1ccc(F)cc1-c1cnc2ccc(N3CC[C@H](N(C)C(=O)OC(C)C)C3)nn12` [(S)-isopropyl (1-(3-(5-fluoro-2-methoxyphenyl)imidazo[1,2-b]pyridazin-6-yl)pyrrolidin-3-yl)(methyl)carbamate], the IC50 at AAK1 [1] and at AAK1 [2] was at most 0.01 µM in each case.

As to `COc1ncc(F)cc1-c1cnc2ccc(N3CC[C@H](N(C)C(=O)OC(C)C)C3)nn12` [(S)-isopropyl (1-(3-(5-fluoro-2-methoxypyridin-3-yl)imidazo[1,2-b]pyridazin-6-yl)pyrrolidin-3-yl)(methyl)carbamate], the IC50 is at most 0.01 µM against AAK1 [1] and at most 0.1 µM on AAK1 [2].

For the compound `CC(C)OC(=O)N(C)[C@H]1CCN(c2ccc3ncc(-c4cccnc4)n3n2)C1` [(S)-isopropyl methyl(1-(3-(pyridin-3-yl)imidazo[1,2-b]pyridazin-6-yl)pyrrolidin-3-yl)carbamate], the IC50 against AAK1 [1] was at most 0.01 µM; at AAK1 [2], at most 0.1 µM.

Consider `COc1nc(C)ccc1-c1cnc2ccc(N3CC[C@H](N(C)C(=O)OC(C)C)C3)nn12` [(S)-isopropyl(1-(3-(2-methoxy-6-methylpyridin-3-yl)imidazo[1,2-b]pyridazin-6-yl)pyrrolidin-3-yl)(methyl)carbamate], for which the IC50 against AAK1 [1] and on AAK1 [2] was at most 0.01 µM each time.

Take `CC(C)(C)COC(=O)N1CCC[C@H]1CNc1ccc2ncc(-c3ccc(CN)cc3)n2n1` [(S)-neopentyl 2-(((3-(4-(aminomethyl)phenyl)imidazo[1,2-b]pyridazin-6-yl)amino)methyl)pyrrolidine-1-carboxylate]: the IC50 against AAK1 [1] and on AAK1 [2] was at most 0.01 µM in each case.

Consider `CC(C)(C)COC(=O)N1CCC[C@H]1CNc1ccc2ncc(-c3ccncc3)n2n1` [(S)-neopentyl 2-(((3-(pyridin-4-yl)imidazo[1,2-b]pyridazin-6-yl)amino)methyl)pyrrolidine-1-carboxylate], for which the values for the IC50 at AAK1 [1] and on AAK1 [2] were at most 0.01 µM and at most 0.1 µM, respectively.

`CC(C)(C)OC(=O)N1CCC[C@H]1CNc1ccc2ncc(-c3ccc(CN)cc3)n2n1` [(S)-tert-butyl 2-(((3-(4-(aminomethyl)phenyl)imidazo[1,2-b]pyridazin-6-yl)amino)methyl)pyrrolidine-1-carboxylate]: the IC50 on AAK1 [1] and on AAK1 [2] was at most 0.01 µM each time.

Regarding `CC(C)(C)OC(=O)N1CCC[C@H]1CNc1ccc2ncc(-c3ccc(C(N)=O)cc3)n2n1` [(S)-tert-butyl 2-(((3-(4-carbamoylphenyl)imidazo[1,2-b]pyridazin-6-yl)amino)methyl)pyrrolidine-1-carboxylate], the IC50 on AAK1 [1] and at AAK1 [2] was at most 0.01 µM throughout.

Regarding `CNC(=O)c1cnc2ccc(NC[C@@H]3CCCN3C(=O)OC(C)(C)C)nn12` [(S)-tert-butyl 2-(((3-(methylcarbamoyl)imidazo[1,2-b]pyridazin-6-yl)amino)methyl)pyrrolidine-1-carboxylate], the IC50 was at most 0.01 µM against AAK1 [1] and at most 0.1 µM on AAK1 [2].

As to `CC(C)(C)OC(=O)N1CC[C@H]1CNc1ccc2ncc(Br)n2n1` [(S)-tert-butyl 2-(((3-bromoimidazo[1,2-b]pyridazin-6-yl)amino)methyl)azetidine-1-carboxylate], the IC50 at AAK1 [1] was at most 0.01 µM; on AAK1 [2] it was at most 0.1 µM.

On to `Cc1cnc2ccc(NC[C@@H]3CCCN3C(=O)OC(C)(C)C)nn12` [(S)-tert-butyl 2-(((3-methylimidazo[1,2-b]pyridazin-6-yl)amino)methyl)pyrrolidine-1-carboxylate], for which the IC50 was at most 0.01 µM on AAK1 [1] and at most 0.1 µM at AAK1 [2].

Turning to `CC(C)(C)OC(=O)N1CCC[C@H]1CNc1ccc2ncc(-c3ccccc3)n2n1` [(S)-tert-butyl 2-(((3-phenylimidazo[1,2-b]pyridazin-6-yl)amino)methyl)pyrrolidine-1-carboxylate], the IC50 against AAK1 [1] and at AAK1 [2] was at most 0.01 µM in each case.

What is called IC50 is the concentration that inhibits the measured activity by half.
